Patent US11364231B2, “Methods of treating radiation induced gastrointestinal syndrome (RIGS) and related disease states using YEL002/BCN057” (priority 2017, dated 2022)
“Also recorded” adds a separate entry of the source.

Tests used:
[1] = test system: C57B16 mice exposed to PBI (BM40); experiment: Survival after partial body irradiation (PBI, BM40); format: in vivo; settings: 14.5 Gy PBI (BM40), BCN057 at 24 hrs post PBI; untreated dead within 12 days
Text: FIG. 1C. Kaplan Meier survival analysis of C57B16 mice (n=25/group) exposed to PBI (BM40). Head & Neck and upper extremities were shielded to spare 40% of bone marrow.
Unless there has been a very focal radiation exposure there will also be involvement of many other organ systems, and their differential responses to various doses of irradiation will impact the gastrointestinal acute radiation syndrome (GI-ARS) dose response. All radiation doses inducing GI-ARS will have a major impact on the bone marrow, which in turn will affect the levels of intestinal inflammation and ability of the body to manage the infection resulting from bacterial translocation through an impaired intestinal mucosal barrier. To investigate involvement of bone marrow in survival outcome upon BCN057 treatment, C57B16 mice were exposed to partial body irradiation (PBI) where 40% of total bone marrow was […] to irradiation after shielding head and fore limbs. Treatment with BCN057 at 24 hrs post exposure of 14.5 Gy PBI rescued 70% of mice from radiation lethality (p<0.0001). However, all the untreated mice were dead within 12 days post-exposure (FIG. 1C).

[2] = test system: nuclear β-catenin in crypt epithelial cells; experiment: β-Catenin immunohistochemistry of mouse jejunum; format: in vivo, mice; settings: BCN057 at 24 hrs post AIR vs irradiated untreated animals
Procedure: The effect of BCN057 was analyzed in crypt epithelial β-catenin activation. […] Nuclear β-catenin positive cells were primarily observed in crypt bottom which is also location for ISCs indicating activation of WNT-β-catenin signaling in ISCs.
β-Catenin immunohistochemistry was performed in paraffin-embedded sections of mouse jejunum (56). Before immunostaining antigen retrieval was performed by heating slides in […] at 100° C. for 20 min in a microwave oven at 500 W using antigen retrieval solution (10 mM Tris and 1 mM EDTA, pH 9.0). Non-specific antibody binding was blocked for 20 min. by incubation with 0.05% w/v BSA in PBS. Tissue was stained using the anti-β-catenin antibody (1:100 dilution; BD Transduction Laboratories, Franklin Lakes, N.J.; #610154) at room temperature for 2 hr followed by staining with horseradish peroxidase-conjugated Anti-Mouse Antibody (Dako, Denmark) at room temperature for 1 hr. Peroxidase activity was detected by adding DAB substrate. Nucleus was counter-stained with haematoxylin (blue). β-Catenin-positive nucleus (stained dark brown) was calculated from 15 crypts per field, 5 fields per mice.

β-catenin target genes = experiment: Real-time PCR of β-catenin target genes in crypt cells; format: in vivo; settings: crypt epithelial cells, irradiated mice treated with BCN057 vs irradiated control
Procedure: To compare the mRNA levels of β-catenin target genes in intestinal crypt cells from irradiated mice treated with BCN057 or PBS real-time PCR were performed using primer pairs for the genes Ephb2, Ascl, Olf, Tcf, Lef, Sox9 and Axin. RNA was isolated from crypt cells using RNeasy mini kit from Qiagen. Preparation of cDNA followed by real-time PCR array was performed according to manufacturer protocol (Qiagen).

[3] = test system: human malignant colonic organoids; experiment: Human colon tumor derived organoids with or without irradiation; format: cell-based
Text: FIG. 16. […] Organoids derived from surgical specimen of colon tumor were exposed to irradiation (8Gy) and then treated with BCN057. Note loss of budding crypt like structure in Irradiated organoids treated with BCN057.
FIG. 17. […] Budding crypt to total crypt ratio reduced in a dose dependent manner following irradiation (2-8 Gy).
BCN057 was first examined in the National Cancer Institute (NCI) 60 cancer cell line platform. Several of these cell lines are known to be positive for dysregulation of the Wnt/b-catenin signaling pathway. […] Next we examined the effect of BCN057 in human colonic tumor derived organoids exposed to irradiation.

COc1ccc2cc(-c3nc4ccc(C)cn4c3NCc3ccco3)c(=O)[nH]c2c1 [BCN057, 3-(3((furan-2-ylmethyl)ammo)-6-methylimidazo[1,2-a]pyridine-2-yl)-6-methoxyquinolin-2(1H)-one]
survival [1]: 70%
nuclear β-catenin positive cells [2]: significant increase; also recorded: more nuclear β-catenin staining
mRNA level of β-catenin target genes (β-catenin target genes): several fold increases
rescue of malignant organoids from radiation toxicity ([3]; 8Gy (2-8 Gy in FIG. 17), BCN057 10 uM at 1 hr post radiation): did not recue organoids from radiation toxicity; also recorded: did not rescue; also recorded: could not reduce the radiation toxicity
growth and proliferation of malignant organoid ([3]; un-irradiated organoids treated with BCN057): inhibitory effect
